Measurements published in ChEMBL document CHEMBL1150459, “The -iodoethoxyl group: a stable unit for radioiodination” (Bioorg Med Chem Lett, 1994).

Assays:
Mus musculus [1] = assay: Biodistribution of [123I]- labeled compound in mice liver was determined after 1 min of administration; expressed in percent of injected dose per gram of organ; assay type: ADME, organism-based; conditions: in vivo
Mus musculus [2] = assay: Biodistribution of [123I]- labeled compound in mice heart was determined after 10 min of administration; expressed in percent of injected dose per gram of organ; assay type: ADME, organism-based; conditions: in vivo
Mus musculus [3] = assay: Biodistribution of [123I]- labeled compound in mice kidneys was determined after 10 min of administration; expressed in percent of injected dose per gram of organ; assay type: ADME, organism-based, Kidney; conditions: in vivo
Mus musculus [4] = assay: Biodistribution of [123I]- labeled compound in mice heart was determined after 30 sec of administration; expressed in percent of injected dose per gram of organ; assay type: ADME, organism-based; conditions: in vivo, 0.5 min
Mus musculus [5] = assay: Biodistribution of [123I]- labeled compound in mice liver was determined after 15 sec of administration; expressed in percent of injected dose per gram of organ; assay type: ADME, organism-based; conditions: in vivo, 15 s
Mus musculus [6] = assay: Biodistribution of [123I]- labeled compound in mice liver was determined after 30 sec of administration; expressed in percent of injected dose per gram of organ; assay type: ADME, organism-based; conditions: in vivo, 0.5 min
Mus musculus [7] = assay: Biodistribution of [123I]- labeled compound in mice kidneys was determined after 30 sec of administration; expressed in percent of injected dose per gram of organ; assay type: ADME, organism-based, Kidney; conditions: in vivo, 0.5 min
Mus musculus [8] = assay: Biodistribution of [123I]- labeled compound in mice lungs was determined after 5 min of administration; expressed in percent of injected dose per gram of organ; assay type: ADME, organism-based, Lung; conditions: in vivo
Mus musculus [9] = assay: Biodistribution of [123I]- labeled compound in mice heart was determined after 5 min of administration; expressed in percent of injected dose per gram of organ; assay type: ADME, organism-based; conditions: in vivo
Mus musculus [10] = assay: Biodistribution of [123I]- labeled compound in mice kidneys was determined after 5 min of administration; expressed in percent of injected dose per gram of organ; assay type: ADME, organism-based, Kidney; conditions: in vivo
Mus musculus [11] = assay: Biodistribution of [123I]- labeled compound in mice lungs was determined after 10 min of administration; expressed in percent of injected dose per gram of organ; assay type: ADME, organism-based, Lung; conditions: in vivo
Mus musculus [12] = assay: Biodistribution of [123I]- labeled compound in mice liver was determined after 5 min of administration; expressed in percent of injected dose per gram of organ; assay type: ADME, organism-based; conditions: in vivo
Mus musculus [13] = assay: Biodistribution of [123I]- labeled compound in mice liver was determined after 2 min of administration; expressed in percent of injected dose per gram of organ; assay type: ADME, organism-based; conditions: in vivo
Mus musculus [14] = assay: Biodistribution of [123I]- labeled compound in mice kidneys was determined after 2 min of administration; expressed in percent of injected dose per gram of organ; assay type: ADME, organism-based, Kidney; conditions: in vivo
Mus musculus [15] = assay: Biodistribution of [123I]- labeled compound in mice heart was determined after 2 min of administration; expressed in percent of injected dose per gram of organ; assay type: ADME, organism-based; conditions: in vivo
Mus musculus [16] = assay: Biodistribution of [123I]- labeled compound in mice lungs was determined after 15 sec of administration; expressed in percent of injected dose per gram of organ; assay type: ADME, organism-based, Lung; conditions: in vivo, 15 s
Mus musculus [17] = assay: Biodistribution of [123I]- labeled compound in mice brain was determined after 1 min of administration; expressed in percent of injected dose per gram of organ; assay type: ADME, organism-based; conditions: in vivo
Mus musculus [18] = assay: Biodistribution of [123I]- labeled compound in mice kidneys was determined after 1 min of administration; expressed in percent of injected dose per gram of organ; assay type: ADME, organism-based, Kidney; conditions: in vivo
Mus musculus [19] = assay: Biodistribution of [123I]- labeled compound in mice lungs was determined after 30 sec of administration; expressed in percent of injected dose per gram of organ; assay type: ADME, organism-based, Lung; conditions: in vivo, 0.5 min
Mus musculus [20] = assay: Biodistribution of [123I]- labeled compound in mice brain was determined after 5 min of administration; expressed in percent of injected dose per gram of organ; assay type: ADME, organism-based; conditions: in vivo
Mus musculus [21] = assay: Biodistribution of [123I]- labeled compound in mice lungs was determined after 1 min of administration; expressed in percent of injected dose per gram of organ; assay type: ADME, organism-based, Lung; conditions: in vivo
Mus musculus [22] = assay: Biodistribution of [123I]- labeled compound in mice kidneys was determined after 15 sec of administration; expressed in percent of injected dose per gram of organ; assay type: ADME, organism-based, Kidney; conditions: in vivo, 15 s
Mus musculus [23] = assay: Biodistribution of [123I]- labeled compound in mice brain was determined after 15 sec of administration; expressed in percent of injected dose per gram of organ; assay type: ADME, organism-based; conditions: in vivo, 15 s
Mus musculus [24] = assay: Biodistribution of [123I]- labeled compound in mice brain was determined after 2 min of administration; expressed in percent of injected dose per gram of organ; assay type: ADME, organism-based; conditions: in vivo
Mus musculus [25] = assay: Biodistribution of [123I]- labeled compound in mice heart was determined after 1 min of administration; expressed in percent of injected dose per gram of organ; assay type: ADME, organism-based; conditions: in vivo
Mus musculus [26] = assay: Biodistribution of [123I]- labeled compound in mice brain was determined after 10 min of administration; expressed in percent of injected dose per gram of organ; assay type: ADME, organism-based; conditions: in vivo
Mus musculus [27] = assay: Biodistribution of [123I]- labeled compound in mice heart was determined after 15 sec of administration; expressed in percent of injected dose per gram of organ; assay type: ADME, organism-based; conditions: in vivo, 15 s
Mus musculus [28] = assay: Biodistribution of [123I]- labeled compound in mice liver was determined after 10 min of administration; expressed in percent of injected dose per gram of organ; assay type: ADME, organism-based; conditions: in vivo
Mus musculus [29] = assay: Biodistribution of [123I]- labeled compound in mice brain was determined after 30 sec of administration; expressed in percent of injected dose per gram of organ; assay type: ADME, organism-based; conditions: in vivo, 0.5 min
Mus musculus [30] = assay: Biodistribution of [123I]- labeled compound in mice lungs was determined after 2 min of administration; expressed in percent of injected dose per gram of organ; assay type: ADME, organism-based, Lung; conditions: in vivo

A Biodistribution (Mus musculus [1]) of 7.8%, a Biodistribution (Mus musculus [2]) of 3.2% and a Biodistribution (Mus musculus [3]) of 12.7% were found for `O=C(O)CCOCCI` in this work. It also gave a Biodistribution (Mus musculus [4]) of 7.9%, a Biodistribution (Mus musculus [5]) of 2.3% and a Biodistribution (Mus musculus [6]) of 5.5%. The Biodistribution (Mus musculus [7]) was 8.8%, the Biodistribution (Mus musculus [8]) was 8.8% and the Biodistribution (Mus musculus [9]) was 4.2%. It also gave a Biodistribution (Mus musculus [10]) of 13.2%, a Biodistribution (Mus musculus [11]) of 6.5% and a Biodistribution (Mus musculus [12]) of 9.9%. It also gave a Biodistribution (Mus musculus [13]) of 8.5%, a Biodistribution (Mus musculus [14]) of 11.3% and a Biodistribution (Mus musculus [15]) of 5.3%. For the same compound, the Biodistribution (Mus musculus [16]) was 18.4%, the Biodistribution (Mus musculus [17]) was 4.7% and the Biodistribution (Mus musculus [18]) was 9%. For the same compound, the Biodistribution (Mus musculus [19]) was 12.6%, the Biodistribution (Mus musculus [20]) was 2.4% and the Biodistribution (Mus musculus [21]) was 12%. For the same compound, the Biodistribution (Mus musculus [22]) was 8.6%, the Biodistribution (Mus musculus [23]) was 5.5% and the Biodistribution (Mus musculus [24]) was 4.1%. For the same compound, the Biodistribution (Mus musculus [25]) was 6.2%, the Biodistribution (Mus musculus [26]) was 1.6% and the Biodistribution (Mus musculus [27]) was 17.8%. It also gave a Biodistribution (Mus musculus [28]) of 7.1%, a Biodistribution (Mus musculus [29]) of 5.1% and a Biodistribution (Mus musculus [30]) of 10.9%.
